The source of these data is US4477446A, “1-Benzazepines and their pharmaceutical uses” (USV Pharmaceutical Corporation, priority 1983, dated 1984).

For assay [1], the system named is rat peritoneal mast cells. Put plainly: Inhibition of histamine release from rat mast cells. It counts as cell-based. The following applies: for IC50: Rattus norvegicus, Mast cell, read-out: I50 of antigen-induced secretion of histamine. As for the experimental part: The compound of the present invention was also tested for inhibition of histamine release from rat mast cells by the method of Khandwala et al., Int. Archs Allergy appl. Immun. 69:159-168 (1982). Rat peritoneal mast cells contain receptors for IgE antibodies as well as granules which contain preformed mediators of anaphylaxis. Immunologically stimulated secretion of histamine from these cells has long been used as a model for testing antiallergic drugs. The standard asthma prophylactic drug disodium cromoglycate is a potent inhibitor in this model. A brief summary of the method is as follows:
Freshly harvested rat peritoneal mast cells were passively sensitized in vitro with rat anti-ovalbumin serum. Spontaneous histamine release or SR (in the absence of antigen) and anaphylactically-induced histamine release or AIR (in the presence of antigen) were measured after 15 minutes of incubation. Both the histamine released into the incubation medium and the residual histamine extracted from rat mast cells were measured fluorometrically.

Assay [2] concerns the target T1, binding of IgE to mast cells (cellular receptor) (Rattus norvegicus, UniProt P12371).
T1 construct: endogenous in cells; host or cells: mixed peritoneal cells (containing mast cells)
T1 sequence (P12371 24-245): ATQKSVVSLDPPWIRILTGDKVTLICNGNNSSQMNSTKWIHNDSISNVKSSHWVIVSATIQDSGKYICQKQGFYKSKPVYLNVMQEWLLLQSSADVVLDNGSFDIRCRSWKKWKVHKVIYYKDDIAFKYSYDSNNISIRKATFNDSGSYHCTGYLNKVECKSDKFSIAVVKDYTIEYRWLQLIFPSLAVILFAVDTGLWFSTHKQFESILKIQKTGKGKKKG
T1 sequence (P13386 1-243 partner): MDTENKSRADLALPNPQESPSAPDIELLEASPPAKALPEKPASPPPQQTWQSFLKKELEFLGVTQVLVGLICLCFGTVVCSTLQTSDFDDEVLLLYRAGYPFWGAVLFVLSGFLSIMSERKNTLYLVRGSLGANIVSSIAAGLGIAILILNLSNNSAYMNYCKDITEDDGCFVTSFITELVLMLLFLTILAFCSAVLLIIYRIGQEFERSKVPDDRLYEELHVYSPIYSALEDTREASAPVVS
T1 sequence (P20411 19-86 partner): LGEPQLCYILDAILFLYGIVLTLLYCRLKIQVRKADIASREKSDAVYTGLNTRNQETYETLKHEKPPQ
Put plainly: Binding of IgE to mast cells (125I-labelled rat IgE, mixed peritoneal cells). Here is the method: The test used to determine this activity was the method of S. M. Coutts et al. (Journal of Pharm. Sci., 68:353 (1979)). Briefly described, the method is as follows:
IgE, isolated from the ascitic fluid of a transplantable rat IgE immunocytoma, was labeled with iodine-125 under mild conditions employing the Bolton-Hunter reagent. The antibody was incubated with mixed peritoneal cells at 37° C., and the cell-bound IgE was separated from unbound label by sedimentation through an 8% sucrose-polymer solution in microsediment tubes. Conditions for the interaction of 3nM IgE with 3×10^5 mast cells in 150 μl were: incubation time, 2 hrs; pH, 6.5-7.0; and ionic strength, equivalent to 150 mM NaCl. Mixed peritoneal cells bind IgE with an affinity equal to that of purified mast cells.

The test system of assay [3] is guinea pig lung slices. The assay is described as follows: Inhibition of histamine release from guinea pig lung slices. The note with it: Cavia porcellus; passively sensitized lung slices, 5 minutes preincubation; read-out: concentration at which 50% of antigen-induced histamine release was inhibited (I50). It counts as cell-based. An excerpt: 1H-benz(f)azepine-2,5-dione was also found to inhibit histamine-release from guinea pig lung slices over a wide concentration range. Immunologically mediated secretion of histamine from guinea pig lung slices is mediated through the IgG1 class of antibodies, as opposed to the IgE-class of antibodies which control secretion from rat mast cells. The affect of the compound of the present invention on antigen-induced release of histamine from passively sensitized guinea pig lung slices was determined according to the procedure of Khandwala et al., Int. Archs. Allergy Appl. Immunol. 59:34-44(1979). A brief description of the method follows:
Guinea pig lung slices were passively sensitized in vitro with guinea pig anti-ovalbumin serum. […] Both the histamine released into the incubation media and the residual histamine extracted from the lung slices were measured fluorometrically. Both spontaneous and antigen-induced histamine releases were expressed as % of total extractable histamine in the lung slices. Net antigen-induced histamine release (AIR) was obtained by subtracting the spontaneous release from that in the presence of the antigen. The effect of the test compound on both SR and AIR was determined following 5 minutes preincubation of sensitized lung slices with the test compound. The concentration of the test compound required for 50% inhibition of AIR (I50) was determined.

In assay [4] the test system is human basophils. Put plainly: Inhibition of histamine release from human basophils. It counts as cell-based. The following applies: 5 minutes preincubation before anti-human IgE challenge; read-out: calculated concentration at which 50% of anti-IgE-induced histamine release was inhibited. As for the experimental part:
1H-benz(f)azepine-2,5-dione was also tested by a method which measures inhibition of histamine release from human basophils. The basophil is a circulating granulocyte that contains preformed mediators of anaphylaxis. These mediators are secreted after immunological stimulation of the IgE-Fc receptor system. The human basophil has thus been employed as a model cell system for asthma and allergy. The effect of the compound upon anti-IgE-medicated secretion of histamine from human basophils prepared from venous blood was carried out according to Siraganian, R. and Brodsky, M. J., Automated Histamine Analysis for in vitro testing, J. Allergy Clin. Immunol. 57:525-540 (1976). The summary of the method follows:
A fraction containing basophils was isolated by allowing freshly drawn human blood to sediment in the presence of dextran, saline and ethylenediamine tetraacetate. […] Both the histamine secreted after the challenge and that remaining in the cells were determined by an automated fluorometric assay. The influence of 1H-benz(f)azepine-2,5-dione on anti-IgE-induced release of histamine (AIR) was assessed by preincubation of the cells with the test compound for 5 minutes before immunological challenge. […] The results were expressed as the percent inhibition of AIR or as I50 value.

Where [5] appears, read: 0 h, compound added simultaneously (at 0 minutes) with antigen.
Where [6] appears, read: cells and drug preincubated for 5 minutes before adding antigen.

What is called inhibition is the change of the read-out against control, counted positive when it falls. A high value points to a response far below the control.

Read-outs that look alike come from different tables or passages of the source.

For `O=C(O)c1cc(=O)c2c(OCC(O)COc3cccc4oc(C(=O)O)cc(=O)c34)cccc2o1` [disodium cromoglycate, reference compound], the IC50 in assay [1] (setting [5]) is 3 µM. Besides, in assay [1] (setting [6]), the “I50 of antigen-induced secretion of histamine” value was “inactive”.
Consider `O=c1ccc(=O)c2ccccc2[nH]1` [1H-benz(f)azepine-2,5-dione, 1H-Benz(f)azepine-2,5-dione], for which the IC50 in assay [1] (setting [5]) was 1.8 µM; in assay [1] (setting [6]), 5 µM; in assay [2] (3 nM IgE, 3×10^5 mast cells, 2 hrs, 37° C., read-out: concentration at which 50% inhibition of IgE binding was observed (I50)), 12 µM; in assay [3], 20 µM; in assay [4] it was 2 µM. In assay [2] (30 μM, average of two experiments), this compound came in with an inhibition at 30 µM of 70%. The “apparent affinity constant KA of IgE for its cellular receptor” value in assay [2] (in presence of 30 μM test compound, control KA 4.4×10^8 M^-1, Scatchard analysis) was 9.4e+07 M⁻¹.
